Our source for the maximum recommended daily dose (mmol/kg-bw/day) values is PubChem BioAssay AID1195 (EPA DSSTox, 2008).

The series has as its system human maximum recommended daily dose, FDA database. The series can be described thus: DSSTox (FDAMDD) FDA Maximum (Recommended) Daily Dose Database. The note with it: active compounds read low. The source says:
The Food and Drug Administration (FDA) Center for Drug Evaluation and Research, Office of Pharmaceutical Science, Informatics and Computational Safety Analysis Staff's Maximum Recommended Daily Dose (FDAMDD) database contains values for over 1200 pharmaceuticals listed in Martindale: The Extra Pharmacopoeia (1973, 1983, and 1993) and The Physicians' Desk Reference (1995 and 1999). Some classes of chemicals were excluded from the FDAMDD database due to their unsuitability for most QSAR modeling programs. These were inorganic chemicals, high molecular weight polymers (>5000 Daltons), fibers, salts, mixtures of organic chemicals, and small molecules (<100 Daltons). FDAMDD is the non-proprietary portion of the database that was used in the QSAR analysis reported in the Main Citation. DSSTox FDAMDD has fewer substance records than the original MRDD Source database due to consolidation of partial structures (i.e., complexed entities) into a single record and elimination of duplicate entries. DSSTox FDAMDD also differs from the MRDD Source database in presenting complete structural information pertaining to the actual salt or complexed form corresponding to the listed ChemicalName and CASRN. According to the Source authors, there are a number of cases where multiple related forms or derivatives of a drug were listed as separate records but were assumed to fall under the same clinical toxicity assessment and, therefore, assigned the same Dose_MRDD_mg activity value. For the DSSTox FDAMDD, we have labeled these derivatives in the ChemClass_MRDD_grouping field and provide their counts in the ChemicalReplicateCount field to highlight their special nature.
Maximum recommended daily dose (or maximum recommended therapeutic dose) values were determined from pharmaceutical clinical trials that employed an oral route of exposure and daily treatments, usually for 3-12 months. Drugs were given as single or divided dose treatment regimens to achieve desired pharmacological effects. Roughly 5% of the pharmaceuticals in the FDAMDD data file were antineoplastics and anesthetics and were administered intravenously and/or intramuscularly. When separate MRDDs were reported for different routes of exposure, only the oral MRDD was included in the data file and only MRDD values reported for the average adult patient were used. Pharmaceuticals that are administered orally are usually tested over a limited range of doses and have MRDDs reported as mg/day. The mg/day unit was converted to mg/kg-body weight (bw)/day based upon an average adult weighing 60 kg. In contrast, the dose unit for most antineoplastic drug MRDDs is reported as mg/m2 which was converted to mg/kg-bw/day using the formula mg/kg-bw/day = mg/m2/37 for an average adult. Additionally, a few drugs had MRDDs reported in parts per million (ppm) which were converted to mg/kg-bw/day on the basis that 1000 ppm equals 25 mg/kg-bw/day for an average 60 kg adult. Activity Score is mapping of LOG10(1/Dose_MRDD_mmol) spanning activity range [MIN, MAX] onto Integer 1-100 Activity range, where 100 is highest potency and 1 is lowest potency: ActivityScore = 100 * INTEGER[(LOGINV_MRDD_mmol - MIN)/(MAX […] MIN)]. Activity Outcome is "active" for all substances, since Dose_MRDD_mmol is reported for all substances.

Where [1] appears, read: TherapeuticCategory: antibacterial.
Where [2] appears, read: TherapeuticCategory: antineoplastic.
Setting [3] is: TherapeuticCategory: glucocorticoid.
Where [4] appears, read: TherapeuticCategory: antiemetic.

With `CCC(=O)O[C@@H]1CC(=O)O[C@H](C)C/C=C/C=C/[C@H](O[C@@H]2CC[C@H](N(C)C)[C@@H](C)O2)[C@H](C)C[C@H](CC=O)[C@H](O[C@@H]2O[C@H](C)[C@@H](O[C@H]3C[C@@](C)(O)[C@@H](O)[C@H](C)O3)[C@H](N(C)C)[C@H]2O)[C@H]1OC`, the maximum recommended daily dose (mmol/kg-bw/day) under setting [1] is 0.0742.
As for `O=C(CCCCC(=O)Nc1c(I)cc(I)c(C(=O)O)c1I)Nc1c(I)cc(I)c(C(=O)O)c1I`, the maximum recommended daily dose (mmol/kg-bw/day) (TherapeuticCategory: diagnostic aid) was 0.147.
Turning to `CCN(CC)CCOC(=O)C(Cc1cccc2ccccc12)CC1CCCO1` (stereo not drawn), the maximum recommended daily dose (mmol/kg-bw/day) (TherapeuticCategory: vasodilator) is 0.0261.
Take `CC[N+]1(CC)CCC(=C(c2ccccc2)c2ccccc2)C1C` (stereo not drawn): the maximum recommended daily dose (mmol/kg-bw/day) (TherapeuticCategory: antispasmodic) is 0.00518.
As for `CC(CN(C)C)CN1c2ccccc2Sc2ccccc21` (stereo not drawn), where the note is “TherapeuticCategory: antipruritic”, the maximum recommended daily dose (mmol/kg-bw/day) is 0.0056.
Regarding `CCN1CCN(C(=O)N[C@@H](C(=O)N[C@@H]2C(=O)N3[C@@H]2SC(C)(C)[C@@H]3C(=O)O)c2ccccc2)C(=O)C1=O`, under setting [1], the maximum recommended daily dose (mmol/kg-bw/day) was 0.773.
With `COc1cccc(C(=O)CCN[C@@H](C)[C@H](O)c2ccccc2)c1`, the maximum recommended daily dose (mmol/kg-bw/day) (TherapeuticCategory: antianginal) was 0.00255.
Consider `Cn1c(=O)c2c(ncn2CC2OCCO2)n(C)c1=O`, for which, where the note is “TherapeuticCategory: bronchodilator”, the maximum recommended daily dose (mmol/kg-bw/day) is 0.05.
Turning to `Cc1nnc2n1-c1sc(Br)cc1C(c1ccccc1Cl)=NC2`, the maximum recommended daily dose (mmol/kg-bw/day) (TherapeuticCategory: sedative, hypnotic) is 1.06e-05.
For `CC(C)COC(=O)c1ccc(N)cc1`, under “TherapeuticCategory: topical anesthetic”, the maximum recommended daily dose (mmol/kg-bw/day) was 0.0345.
For `CC1=CC(=O)c2ccccc2C1=O`, the maximum recommended daily dose (mmol/kg-bw/day) (TherapeuticCategory: prothrombogenic vitamin) was 0.000193.
On to `COc1cc(N)c(Cl)cc1C(=O)NC1CCN(CCCOc2ccc(F)cc2)CC1OC` (stereo not drawn), for which the maximum recommended daily dose (mmol/kg-bw/day) (TherapeuticCategory: peristaltic stimulant) is 0.00285.
On to `COc1cccc2c1C(=O)c1c(O)c3c(c(O)c1C2=O)C[C@@](O)(C(C)=O)C[C@@H]3O[C@H]1C[C@H](N)[C@H](O)[C@H](C)O1`, for which the maximum recommended daily dose (mmol/kg-bw/day) under setting [2] is 0.00205.
In the case of `CO/N=C(\C(=O)N[C@@H]1C(=O)N2C(C(=O)O)=C(CSc3nc(=O)c(=O)[nH]n3C)CS[C@H]12)c1csc(N)n1`, the maximum recommended daily dose (mmol/kg-bw/day) under setting [1] is 0.12.
Consider `CC(=O)OCC(=O)[C@@]1(O)CC[C@H]2[C@@H]3CCC4=CC(=O)C=C[C@]4(C)[C@H]3[C@@H](O)C[C@@]21C`, for which the maximum recommended daily dose (mmol/kg-bw/day) under setting [3] is 0.00827.
On to `NC(=O)CS(=O)C(c1ccccc1)c1ccccc1` (stereo not drawn), for which the maximum recommended daily dose (mmol/kg-bw/day) (TherapeuticCategory: CNS stimulant, adrenergic) is 0.0122.
As to `CN(C)/N=N/c1nc[nH]c1C(N)=O`, the maximum recommended daily dose (mmol/kg-bw/day) under setting [2] is 0.0247.
As to `CCCCCCC(C)(C)c1cc(O)c2c(c1)OC(C)(C)[C@@H]1CCC(=O)C[C@@H]21`, under setting [4], the maximum recommended daily dose (mmol/kg-bw/day) is 0.000268.
As for `Nc1ncnc2c1ncn2[C@@H]1O[C@H](COP(=O)(O)O)[C@@H](O)[C@H]1O`, for the setting “TherapeuticCategory: antiarrhythmic”, the maximum recommended daily dose (mmol/kg-bw/day) was 0.000959.
`OC[C@H]1O[C@@H](O[C@H]2[C@H](O)[C@@H](O)[C@H](O)O[C@@H]2CO)[C@H](O)[C@@H](O)[C@H]1O`: under “TherapeuticCategory: none”, the maximum recommended daily dose (mmol/kg-bw/day) was 0.292.
For the compound `Cc1cccc(CN2CCN(C(c3ccccc3)c3ccc(Cl)cc3)CC2)c1` (stereo not drawn), the maximum recommended daily dose (mmol/kg-bw/day) under setting [4] is 0.00427.
In the case of `CCCCNc1ccc(C(=O)OCCOCCOCCOCCOCCOCCOCCOCCOCCOC)cc1`, where the note is “TherapeuticCategory: antitussive”, the maximum recommended daily dose (mmol/kg-bw/day) is 0.0166.
Regarding `CC1(C)S[C@@H]2[C@H](NC(=O)[C@@H](NC(=O)N3CCNC3=O)c3ccccc3)C(=O)N2[C@H]1C(=O)O`, the maximum recommended daily dose (mmol/kg-bw/day) under setting [1] was 0.217.
Regarding `CSc1ccc2c(c1)N(CCC1CCCCN1C)c1ccccc1S2` (stereo not drawn), the maximum recommended daily dose (mmol/kg-bw/day) (TherapeuticCategory: antipsychotic) is 0.0359.
Turning to `CC1(C)O[C@@H]2[C@@H](CO[C@@]3(COS(N)(=O)=O)OC(C)(C)O[C@@H]23)O1`, the maximum recommended daily dose (mmol/kg-bw/day) (TherapeuticCategory: antiepileptic) was 0.0197.
With `CC(=O)OCC(=O)[C@@]1(O)[C@H](C)C[C@H]2[C@@H]3C[C@H](F)C4=CC(=O)C=C[C@]4(C)[C@H]3[C@@H](O)C[C@@]21C`, the maximum recommended daily dose (mmol/kg-bw/day) under setting [3] was 0.000921.
For `Oc1ccc2c(c1)[C@@]13CCCC[C@@]1(O)[C@@H](C2)N(CC1CCC1)CC3`, the maximum recommended daily dose (mmol/kg-bw/day) (TherapeuticCategory: narcotic analgesic) is 0.000815.
With `O=S(=O)(O)CCS`, where the note is “TherapeuticCategory: mucolytic, uroprotective”, the maximum recommended daily dose (mmol/kg-bw/day) was 0.0281.
